Read-outs that look alike come from different tables or passages of the source.
How the values were obtained:
[1] = tested on: lung carcinoma, MBA9812; parameters: method as in doi:10.1021/jo00007a009; settings: cited from earlier work
[2] = tested on: SF-268; parameters: method as in PMID 23136829; settings: read-out: IC50, in vitro cytotoxicity toward SF-268; cited from earlier work
[3] = tested on: MCF-7; parameters: method as in PMID 23136829; settings: read-out: IC50, in vitro cytotoxicity toward MCF-7; cited from earlier work
[4] = tested on: Staphylococcus aureus; parameters: method as in PMID 26968676; settings: cited from earlier work
[5] = tested on: PC-3 (prostate cancer); assay: Sulforhodamine B cytotoxicity assay, PC-3; type: cell-based; settings: for IC50: 72 h continuous exposure, SRB assay, mean ± SD; for Selectivity index (SI), ratio of IC50 in CoN in cancer cells, PC-3: CCD841-CoN IC50 / PC-3 IC50
Procedure: (§1) To analyse the scope of the shikimic-fragment incorporated in the angucycline scaffold on the cytotoxic activity of these compounds, we included five previously obtained compounds (Figure 2, [32]). Therefore, the cytotoxicity of the new nine synthesised compounds, and of the five aforementioned compounds, was evaluated in vitro against different cancer cell lines: PC-3 (prostate cancer), HT-29 (colon cancer), MCF-7 (breast cancer), and one non-tumoral cell line, human colon epithelial cells (CCD841 CoN). A conventional colorimetric assay was set up to estimate the IC50 values, which represent the concentration of a drug that is required for 50% inhibition in vitro after 72 h of continuous exposure to the test compounds. Several serial dilutions (from 1.25 to 100 µM) for each sample were evaluated in triplicate.
(§2) The experimental cell lines were obtained from the American Type Culture Collection. HT-29 (colon cancer cell line), PC-3 (prostate cancer), MCF-7 (breast cancer), and CCD841 CoN (colon epithelial) were grown in DMEM-F12 containing 10% FCS, 100 U/mL penicillin, 100 µg/mL streptomycin, and 1 mM glutamine.
(§3) The in vitro cytotoxic activities of all the compounds were evaluated on cell lines previously mentioned by the sulforhodamine B assay, according to [42]. Briefly, cells were seeded at a plating density of 5 × 10^3 cells/well into 96 well plates. Cells were incubated at 37 °C for 24 h to allow cell attachment. The test compounds at indicated final concentrations were added to the culture medium and the cell cultures were continued for 72 h under the same conditions. Stock solutions of compounds were prepared in DMSO. Control cultures received 0.1% DMSO alone. At the end of the treatment, cells were fixed with trichloroacetic acid (50% w/v) at 4 °C and, subsequently, washed with water. Cells were stained with 0.1% sulforhodamine B in 1% acetic acid for 30 min. Posteriorly, the cells were washed acetic acid (1%) to remove unbound sulforhodamine B. Protein-bound stain was solubilized with 10 mM unbuffered Tris base). The optical density was determined using a […] plate reader (540 nm). The obtained values are transformed to percentages of viable cells versus control treatment and the IC50 values calculated for each compound in the cell lines were studied using the SigmaPlot 12.0 software (Systat Software, San Jose, CA, USA). Values shown are the mean ± SD of the three independent experiments in triplicate.

[6] = tested on: HT-29 (colon cancer); assay: Sulforhodamine B cytotoxicity assay, HT-29; type: cell-based; settings: for IC50: 72 h continuous exposure, SRB assay, mean ± SD; for Selectivity index (SI), ratio of IC50 in CoN in cancer cells, HT-29: CCD841-CoN IC50 / HT-29 IC50
Procedure: as §1, §2, §3

[7] = tested on: MCF-7 (breast cancer); assay: Sulforhodamine B cytotoxicity assay, MCF-7; type: cell-based; settings: for Selectivity index (SI), ratio of IC50 in CoN in cancer cells, MCF-7: CCD841-CoN IC50 / MCF-7 IC50; for IC50: Homo sapiens, MCF7, 72 h continuous exposure, SRB assay
Procedure: as §1, §2, §3

[8] = tested on: human colon epithelial cells (CCD841 CoN); assay: Sulforhodamine B cytotoxicity assay, non-tumoral CCD841 CoN; type: cell-based; settings: CCD-841CoN, 72 h continuous exposure, SRB assay, mean ± SD
Procedure: as §1, §2, §3

[9] = mean ± SD, read-out: IC50 Values MCF-7

Compound | melting point | activity against the lung carcinoma, MBA9812, in mice [1] | IC50 [2] | IC50 [3] | antibacterial activities against Staphylococcus aureus [4] | IC50 ([5]; 72 h) | IC50 [5] | Selectivity index (SI), ratio of IC50 in CoN in cancer cells, PC-3 [5] | IC50 [6] | Selectivity index (SI), ratio of IC50 in CoN in cancer cells, HT-29 [6] | IC50 ([6]; Homo sapiens, HT-29, 72 h) | Selectivity index (SI), ratio of IC50 in CoN in cancer cells, MCF-7 [7] | IC50 [7, 9] | IC50 [8] | IC50 ([7]; read-out: IC50 value MCF-7)
CN[C@H]1C[C@@H](Oc2cc(C)cc3cnc4c(c23)C(=O)c2cccc(O)c2C4=O)O[C@H](C)[C@H]1O [Compound 4a, phenanthroviridin] | – | active | – | – | – | – | – | – | – | – | – | – | – | – | –
Cc1cc(O)c2c3c(ncc2c1)C(=O)c1c(O)cccc1C3=O [Compound 4b, phenanthroviridone] | – | active | 0.09 µM | 0.17 µM | antibacterial activities | – | – | – | – | – | – | – | – | – | –
CN(C)N1C=C2C[C@@H](O[Si](C)(C)C(C)(C)C)[C@@H]3OC(C)(C)O[C@@H]3[C@H]2C2=C1C(=O)c1c(O)cccc1C2=O [Compound 7a] | – | – | – | – | – | < 1 µM | 0.7 ± 0.1 µM | 3.3 | 0.2 ± 0.05 µM | 11.5 | < 0.4 µM | 0.1 | 16 ± 1 µM | 2.3 ± 0.3 µM | –
CC(=O)Oc1cccc2c1C(=O)C1=C(C2=O)[C@H]2C(=CN1N(C)C)C[C@@H](O[Si](C)(C)C(C)(C)C)[C@@H]1OC(C)(C)O[C@H]21 [Compound 7b] | – | – | – | – | – | 2.4 ± 0.9 µM | – | 0.3 | – | 0.4 | 2.1 ± 1.2 µM | 0.1 | 12.1 ± 4 µM | 0.8 ± 0.1 µM | –
CC1(C)O[C@@H]2[C@@H]3C(=CNC4=C3C(=O)c3ccccc3C4=O)C[C@@H](O[Si](C)(C)C(C)(C)C)[C@@H]2O1 [Compound 8] | – | – | – | – | – | 5.7 ± 1.3 µM | – | 2.4 | – | 1.8 | 7.8 ± 0.9 µM | 3.3 | 4.2 ± 4.2 µM | 13.8 ± 1 µM | –
CC1(C)O[C@@H]2[C@H](O1)c1c(cnc3c1C(=O)c1ccccc1C3=O)C[C@H]2O[Si](C)(C)C(C)(C)C [Compound 9a] | – | – | – | – | – | 7.6 ± 1.2 µM | – | 0.4 | – | 0.8 | 3.7 ± 0.8 µM | 0.2 | 17.8 ± 3 µM | 2.8 ± 0.4 µM | –
CC1(C)O[C@@H]2[C@H](O1)c1c(cnc3c1C(=O)c1c(O)ccc(O)c1C3=O)C[C@H]2O[Si](C)(C)C(C)(C)C [Compound 9b] | – | – | – | – | – | 13.1 ± 2 µM | – | 1.2 | – | 1.1 | 15 ± 4.2 µM | 0.6 | 28.3 ± 4 µM | 15.6 ± 2.1 µM | –
COc1cccc2cnc3c(c12)C(=O)c1ccccc1C3=O [Compound 20, 1-Methoxybenzo[b]phenanthridine-7,12-dione] | – | – | – | – | – | 7.8 ± 1 µM | – | 3.0 | 3.7 ± 1.2 µM | 6.4 | ~3 µM | 1.7 | 14 ± 1.7 µM | 23.6 ± 3.4 µM | –

Continued, in another order:

melting point | Compound | activity against the lung carcinoma, MBA9812, in mice [1] | IC50 [2] | IC50 [3] | antibacterial activities against Staphylococcus aureus [4] | IC50 ([5]; 72 h) | IC50 [5] | Selectivity index (SI), ratio of IC50 in CoN in cancer cells, PC-3 [5] | IC50 [6] | Selectivity index (SI), ratio of IC50 in CoN in cancer cells, HT-29 [6] | IC50 ([6]; Homo sapiens, HT-29, 72 h) | Selectivity index (SI), ratio of IC50 in CoN in cancer cells, MCF-7 [7] | IC50 [7, 9] | IC50 [8] | IC50 ([7]; read-out: IC50 value MCF-7)
128.5 °C | CO[C@@H]1[C@@H]2C(=CN(N(C)C)C3=C2C(=O)c2ccccc2C3=O)C[C@@H](OC)[C@@H]1OC [Compound 15, (1R,2S,3R,12bR)-6-(Dimethylamino)-1,2,3-trimethoxy-1,2,3,4,6,12b-hexahydrobenzo[b]phenanthridine-7,12-dione] | – | – | – | – | 34.8 ± 0.3 µM | – | 2.3 | – | 2.8 | 29.2 ± 6.8 µM | 1.0 | 78.1 ± 6.9 µM | 81.6 ± 15.8 µM | –
161.5 °C | CO[C@@H]1[C@@H]2C(=CNC3=C2C(=O)c2ccccc2C3=O)C[C@@H](OC)[C@@H]1OC [Compound 16a, (1R,2S,3R,12bR)-1,2,3-Trimethoxy-1,2,3,4,6,12b-hexahydrobenzo[b]phenanthridine-7,12-dione] | – | – | – | – | 23.6 ± 3.7 µM | – | 4.9 | – | 2.7 | 42.9 ± 8.4 µM | 1.0 | 118 ± 10.8 µM | 116 ± 17.8 µM | –
177.3 °C | CO[C@@H]1[C@@H]2C(=CNC3=C2C(=O)c2cccc(O)c2C3=O)C[C@@H](OC)[C@@H]1OC [Compound 16b, (1R,2S,3R,12bR)-8-Hydroxy-1,2,3-trimethoxy-1,2,3,4,6,12b-hexahydrobenzo[b]phenanthridine-7,12-dione] | – | – | – | – | 6.6 ± 1.1 µM | – | 2.3 | – | 2.9 | 5.3 ± 0.8 µM | 1.3 | 11.5 ± 3.1 µM | 15.5 ± 3.1 µM | –
139 °C | CO[C@@H]1[C@@H]2C(=CNC3=C2C(=O)c2c(O)ccc(O)c2C3=O)C[C@@H](OC)[C@@H]1OC [Compound 16c, (1R,2S,3R,12bR)-8,11-Dihydroxy-1,2,3-trimethoxy-1,2,3,4,6,12b-hexahydrobenzo[b]phenanthridine-7,12-dione] | – | – | – | – | 6.4 ± 0.8 µM | – | 1.4 | – | 2.2 | 4 ± 0.3 µM | 0.7 | 13.5 ± 0.9 µM | 8.8 ± 1.3 µM | –
184.8 °C | CO[C@@H]1[C@H](OC)c2c(cnc3c2C(=O)c2ccccc2C3=O)C[C@H]1OC [Compound 17, (1R,2S,3R)-1,2,3-Trimethoxy-1,2,3,4-tetrahydrobenzo[b]phenanthridine-7,12-dione] | – | – | – | – | 3.9 ± 0.6 µM | – | 3.0 | 3.3 ± 0.9 µM | 3.6 | ~3 µM | 1.0 | 11.9 ± 1.5 µM | 11.8 ± 1.3 µM | –
78.8 °C | CO[C@H]1C=Cc2cnc3c(c2[C@@H]1OC)C(=O)c1cccnc1C3=O [Compound 19a, (1S,2S)-1,2-Dimethoxy-1,2-dihydropyrido[3,2-b]phenanthridine-7,12-dione] | – | – | – | – | – | – | 0.5 | – | – | – | 4.0 | 0.01 ± 0.005 µM | 0.04 ± 0.01 µM | ~0.01 µM
161.2 °C | CO[C@H]1C=Cc2cnc3c(c2[C@@H]1OC)C(=O)c1ccc(C)nc1C3=O [Compound 19b, (1S,2S)-1,2-Dimethoxy-9-methyl-1,2-dihydropyrido[3,2-b]phenanthridine-7,12-dione] | – | – | – | – | – | – | 0.7 | 0.39 ± 0.04 µM | – | < 0.4 µM | 1.6 | 0.19 ± 0.04 µM | 0.3 ± 0.02 µM | –
117.5 °C | CO[C@H]1C=Cc2cnc3c(c2[C@@H]1OC)C(=O)c1ccccc1C3=O [Compound 19c, (1S,2S)-1,2-Dimethoxy-1,2-dihydrobenzo[b]phenanthridine-7,12-dione] | – | – | – | – | 4 ± 0.4 µM | – | 4.4 | – | 0.8 | 21 ± 3.6 µM | 1.4 | 12.8 ± 1.4 µM | 17.4 ± 2 µM | –

— paper PMC6099682, “(-)-Shikimic Acid as a Chiral Building Block for the Synthesis of New Cytotoxic 6-Aza-Analogues of Angucyclinones” (Molecules : A Journal of Synthetic Chemistry and Natural …, 2018)
